In patent publication US20220249607A1, “Method of treatment of degenerative diseases caused by membrane channel-forming peptides fragments” (Zarbio, priority 2021, published 2022):
“Also recorded” adds a separate entry of the source. Where two headings read alike, the source gives them in different places.

Columns and labels:
[1] = system: Aβ-induced apoptosis in the brain; details: rat brain, cited from earlier work; for effect on Aβ-induced apoptosis (TUNEL) / effect on accumulation of Aβ immunoreactivity / amyloid: simultaneous i.c.v. infusion with Aβ; for effect on apoptosis by the inhibitor itself (spontaneous apoptosis): without Aβ, TUNEL
[2] = Flow cytometric permeabilization of negatively charged liposomes to calcium; details: for permeabilization of negatively charged liposomes to calcium: phosphatidylserine liposomes, Fluo-3, flow cytometry
Source text: To improve the quantitative aspect of studying the permeabilization of liposomes by […], we developed a flow cytometric technique which allowed us to estimate the number of channel-forming units in the solutions of peptide (Zaretsky and Zaretskaia 2020). This number appears extremely small compared to the total amount of peptide. In model conditions, one channel is formed out of approximately 10^12 molecules of Aβ25-35. The low ratio of channels created by the peptide would not allow for the studying of channel formation using typical methods of protein biology, such as spectroscopy or NMR, for the reason that the signal of interest being too low. Even though the proportion of channels is small, when the peptide was added in micromolar concentrations, thousands of permeabilized vesicles could be observed, which makes the power of channel formation biologically relevant.
(§1) The figure is a composite of data which was presented and analyzed in detail in (Zaretsky and Zaretskaia 2020, Zaretsky and Zaretskaia 2020). Liposomes (400 nm) were made of either phosphatidylserine (A-E, negatively charged lipid) or phosphatidylcholine (F-H, neutral lipid) with added DiD and were extruded in the Ca-free buffer containing 1 mM Fluo-3. After the addition of calcium, aliquots of peptide were added. Ionomycin was used as a positive control. Fluorescence of liposomes was analyzed using a flow cytometer. Each dot at the graph represent a single liposome registered in the flow. The intensity of DiD fluorescence characterizes the amount of membrane material in the liposome, while the fluorescence of Fluo-3 depends on the intraliposomal presence of calcium. […] The liposomes inside rectangle (area R1) are permeabilized, and the number of liposomes which were counted to be within the area is shown.

[3] = system: lysosomes of cells loaded with Lucifer Yellow; details: 20 hours incubation; Ji, Miranda et al. 2002; cited from earlier work
[4] = Flow cytometric permeabilization of neutral liposomes to calcium; details: phosphatidylcholine liposomes, Fluo-3, flow cytometry
Protocol: as §1

[5] = cited from earlier work
amyloid channels = amyloid channels (Homo sapiens, UniProt P05067); details: cited from earlier work
amyloid channels, sequence (P05067 672-713 limits assumed): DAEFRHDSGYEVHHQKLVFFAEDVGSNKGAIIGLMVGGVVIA

[6] = system: 15 cells derived from pancreatic islets of Langerhans; details: cited from earlier work
[7] = system: 15 cells derived from pancreatic islets of Langerhans; details: cited from earlier work; for effect on beta-amyloid-induced drop in cell viability: MTT, stated for both cell lines
Aβ1-42 toxicity = details: cited from earlier work
[8] = system: Aβ1-42-induced drop of cell survival; details: Tizon, Ribe et al. 2010; cited from earlier work
[9] = study of Aksenov, Aksenova et al. 1996

For `CC(=O)N[C@@H](CC(C)C)C(=O)N[C@@H](CC(C)C)C(=O)N[C@H](C=O)CCCNC(=N)N` [leupeptin], the “effect on Aβ-induced apoptosis (TUNEL)” value [1] is listed as “promoted apoptosis”, the “effect on accumulation of Aβ immunoreactivity / amyloid” value [1] is listed as “promoted” and the “effect on apoptosis by the inhibitor itself (spontaneous apoptosis)” value [1] is listed as “tends to increase apoptosis by itself”.

In the case of aprotinin, the “effect on Aβ-induced apoptosis (TUNEL)” value [1] is listed as “prevented Aβ-induced apoptosis”, the “effect on accumulation of Aβ immunoreactivity / amyloid” value [1] is listed as “did not exacerbate intracellular accumulation of amyloid” and the “effect on apoptosis by the inhibitor itself (spontaneous apoptosis)” value [1] is listed as “tends to decrease even spontaneously occurring apoptosis”.

For Aβ1-42: full-length amyloid peptide, the “permeabilization of negatively charged liposomes to calcium” value [2] is listed as “ineffective in the permeabilization of the membranes; also recorded: does not permeabilize liposomal membranes” and the “pattern of Lucifer Yellow fluorescence in cells (lysosomal permeabilization)” value [3] is listed as “diffuse intracellular pattern of fluorescence”.

In the case of `C[C@H](CCC(=O)O)C[C@H](C)C[C@H](C)C(=O)/C=C(\O)[C@H](C)C[C@H](C)C/C=C/[C@@H](C)[C@@H](O)[C@@H](C)[C@@H](O)C[C@@H]1CC[C@@](C)([C@H]2CC[C@@](C)([C@@H](C)O)O2)O1` [ionomycin], the “permeabilization of negatively charged liposomes to calcium” value [2] is reported as “permeabilizes liposomes” and the “permeabilization of neutral liposomes to calcium” value [4] is reported as “permeabilizes thousands of liposomes”.

For “Aβ25-35: positively charged short channel-forming fragment of beta-amyloid (GSNKGAIIGLM; Amyloid-beta protein 42; UniProt P05067 696-706, looked up, fragment)”, the “number of peptide molecules out of which one channel is formed” value ([2]; model conditions) is given as “approximately 10^12 molecules”, the “permeabilization of negatively charged liposomes to calcium” value [2] is given as “creates multiple liposomes permeable to calcium” and the “percentage of channels with a conductance” value ([5]; acidic pH (pH 5.0), 20 μM peptide) is given as “more than 30%”. The “conductance of formed channels” value ([5]; upper end of conductance) was “up to 1 nS” and the “permeabilization of neutral liposomes to calcium” value [4] was “does not permeabilize liposomes; also recorded: not permeabilized”.

With “Aβ22-35: longer beta-amyloid fragment without positive overall charge, non-channel-forming (EDVGSNKGAIIGLM; Amyloid-beta protein 42; UniProt P05067 693-706, looked up, fragment)” the “permeabilization of negatively charged liposomes to calcium” value [2] was “does not create a noticeable number of channels; also recorded: does not permeabilize liposomes”.

For `NC(CO)(CO)CO` [tromethamine], the “blockade of smaller amyloid channels” value (amyloid channels; channels <400 pS) is listed as “effectively blocked” and the “blockade of giant amyloid channels” value (amyloid channels; super-high conductance channels >1 nS) is listed as “less effective”.

B1: α1-anti-chymotrypsin (protein, UniProt P01011 24-423, looked up)
Alpha-1-antichymotrypsin: HPNSPLDEENLTQENQDRGTHVDLGLASANVDFAFSLYKQLVLKAPDKNVIFSPLSISTALAFLSLGAHNTTLTEILKGLKFNLTETSEAEIHQSFQHLLRTLNQSSDELQLSMGNAMFVKEQLSLLDRFTEDAKRLYGSEAFATDFQDSAAAKKLINDYVKNGTRGKITDLIKDLDSQTMMVLVNYIFFKAKWEMPFDPQDTHQSRFYLSKKKWVMVPMMSLHHLTIPYFRDEELSCTVVELKYTGNASALFILPDQDKMEEVEAMLLPETLKRWRDSLEFREIGELYLPKFSISRDYNLNDILLQLGIEEAFTSKADLSGITGARNLAVSQVVHKAVLDVFEEGTEASAATAVKITLLSALVETRTIVRFNRPFLMIIVPTDTQNIFFMSKVTNPKQA
In the case of B1, the “effect on amylin-induced drop in cell viability” value ([6]; MTT, listed as anti-chymotrypsin) is listed as “prevent amylin-induced cellular toxicity”, the “effect on amylin-induced drop in cell viability” value ([6]; MTT, listed as α1-anti-chymotrypsin) is listed as “prevented” and the protection against amylin ([6]; MTT) is listed as less than 100%. The “effect of further increase of concentration on protection against amylin” value ([6]; above optimal dose) was “significantly decreased the protective effect”, the “effect on beta-amyloid-induced drop in cell viability” value [7] was “can protect against Aβ-induced drop in cell viability” and the “effect on beta-amyloid-induced drop in cell viability” value ([7]; listed as α1-anti-chymotrypsin) was “prevented”. For the same molecule, the “effect of further increase of concentration on protection against beta-amyloid” value ([7]; above optimal dose, both cell lines) was “disappearance of protection”, the “protection against beta-amyloid-induced drop in cell viability” value ([7]; in some conditions, stated for both cell lines (15 cells, cortical cultures)) was no more than 100% and the “effect on Aβ1-42 toxicity” value (Aβ1-42 toxicity; [9]) was “attenuated Aβ1-42 toxicity”. For the same molecule, the “effect on fibril formation” value (Aβ1-42 toxicity; [9]) was “without affecting fibril formation” and the “effect on Aβ toxicity” value (Aβ1-42 toxicity; study of Ma, Brewer et al. 1996) was “not effective”.

B2: cystatin C (protein, UniProt P01034 27-146, looked up)
Cystatin-C: SSPGKPPRLVGGPMDASVEEEGVRRALDFAVGEYNKASNDMYHSRALQVVRARKQIVAGVNYFLDVELGRTTCTKTQPNLDNCPFHDQPHLKRKAFCSFQIYAVPWQGTMTLSKSTCQDA
In the case of B2, the “effect on drop of cell survival induced by Aβ1-42” value [8] is given as “prevented the drop of cell survival”.
